One assay deals with human plasma. The experiment in a line: Anticoagulant effect on human blood in vitro (APTT clotting time, CT2.0). The settings on record: final concentration of compound corresponding to aPTT of the 2-fold blank control. As for the experimental part: Activated partial thromboplastin time (APTT) measurement reagent was mixed with plasma and the reaction was carried out continuously resulting in a change in optical density up to the clotting point, and the clotting time (CT) was measured by optical turbidimetry using a semi-automatic coagulation analyzer. The in vitro anticoagulant activity of compounds on human blood was determined by detecting the clotting time of plasma treated with different concentrations of compounds, and the corresponding concentration of compounds prolonging clotting time was calculated.
Human plasma used in the experiment was purchased from HD Biosciences (Shanghai) Co., Ltd.; Activated partial thromboplastin time determination kit was purchased from Taizhou Zhongqin Shidi Biotechnology Co., Ltd., Item No. SS00220005.
(§1) The compounds were dissolved in 100% DMSO, 20 mM, and stored at room temperature in a nitrogen cabinet.
a. The NaCl reagent in the kit was incubated half an hour in advance, and the APTT reagent was balanced to room temperature.
b. The compound was continuously diluted at 14 concentration points using a Bravo liquid workstation with a 2-fold gradient.
c. 0.75 μL of the compound was added to the measuring cup, double-replicate wells; 50 μL of plasma was added and 50 μL of APTT reagent was added, the mixture was mixed well and put into coagulation analyzer for incubation at 37° C. for 3 minutes.
d. APTT assay was started, 50 μL of NaCl was added to start the reaction, and the clotting time was counted.
e. Control clotting time was measured using 100% DMSO instead of the compound, and the final concentration of DMSO was 0.5%.
Data were curve-fitted using Graphpad Prism to calculate CT2.0, the final concentration of compound corresponding to aPTT of the 2-fold blank control was calculated.

Assay [1] deals with T1, coagulation factor XIa protease (FXIa) (Homo sapiens, UniProt P03951).
T1 construct: purchased Abcam ab62411
T1 sequence (P03951 388-625 limits assumed): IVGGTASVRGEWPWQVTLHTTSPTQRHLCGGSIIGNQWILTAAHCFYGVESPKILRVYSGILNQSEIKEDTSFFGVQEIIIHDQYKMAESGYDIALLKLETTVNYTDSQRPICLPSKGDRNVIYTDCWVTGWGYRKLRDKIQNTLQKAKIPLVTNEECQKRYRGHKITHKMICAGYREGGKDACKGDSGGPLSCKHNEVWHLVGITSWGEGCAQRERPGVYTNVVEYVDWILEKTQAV
T1 sequence (P03951 19-387 partner limits assumed): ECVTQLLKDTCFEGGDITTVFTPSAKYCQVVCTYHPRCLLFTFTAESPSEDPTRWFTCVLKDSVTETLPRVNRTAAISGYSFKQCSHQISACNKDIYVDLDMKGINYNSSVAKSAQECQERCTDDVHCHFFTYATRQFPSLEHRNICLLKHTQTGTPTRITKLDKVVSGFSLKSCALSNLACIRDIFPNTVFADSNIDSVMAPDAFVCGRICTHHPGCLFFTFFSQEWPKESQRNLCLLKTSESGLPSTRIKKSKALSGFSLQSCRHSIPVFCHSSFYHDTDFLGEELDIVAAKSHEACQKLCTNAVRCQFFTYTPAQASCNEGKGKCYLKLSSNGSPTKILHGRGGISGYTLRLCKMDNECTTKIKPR
The experiment in a line: Inhibition of coagulation factor XIa (FXIa), chromogenic substrate, absorbance at 405. Particulars: FXIa 0.05 μg/mL, substrate 2.5 mM, 37° C. 15 minutes. The class given is biochemical. The protocol: Coagulation factor XIa protease (FXIa) decomposed the specific substrate to produce yellow p-nitroaniline (pNA), pNA had strong absorption at 405 nm. The inhibitory activity of the compounds on coagulation factor XIa was determined by assaying the absorbance of the compounds at […].
The coagulation factor XIa protease used in the experiment was purchased from Abcam Company, Item No. ab62411; the coagulation factor XIa-specific substrate was purchased from HYPHEN BioMed, Item No. Biophen cs-21 (66); tris-HCl was purchased from Invitrogen, Item No. 15567-027; NaCl was purchased from ABCONE, Item No. S39168; Twain 20 was purchased from Amersco, Item No. 0777-1L.
as §1
a. 20 mM of the tested compound was diluted to 2 mM using 100% DMSO, and the reference compound was diluted to 0.4 mM; the compound was continuously diluted with a 3-fold gradient at 10 concentration points using a Bravo liquid workstation.
b. The ECHO liquid workstation was used to transfer 10 nL of compound to the corresponding 384-well experimental plate with double replicate wells; the final concentrations of compound reactions were 1000, 333.3, 111.1, 37.0, 12.3, 4.1, 1.37, 0.46, 0.15, and 0.05 nM. The final concentrations of reference compounds were 200, 66.7, 22.2, 7.4, 2.47, 0.82, 0.27, 0.09, 0.03, 0.01 nM.
c. 10 nL DMSO and 10 nL 0.4 mM reference compounds were transferred to high signal control pores and low signal control pores respectively.
d. 0.1 μg/mL FXIa enzyme solution was prepared with buffer solution, and 10 μL enzyme solution was added to 384-well experimental plate, 5 mM substrate solution was prepared using buffer solution, and […] substrate solution was added to a 384-well experimental plate. The final concentration of FXIa was 0.05 μg/mL and the final concentration of the substrate was 2.5 mM.
e. The 384-hole experimental plate was centrifuged and incubated at 37° C. for 15 minutes.
f. The absorbance was measured at 405 nm using EnVision.

In the assay with human plasma, `Nc1ccc(-c2cnc([C@@H]3[C@H]4C[C@H]4c4cc(-c5cc(Cl)ccc5-n5cnnn5)cc(=O)n43)[nH]2)c(F)n1` [Embodiment 1] had a CT2.0 of 1.72 µM. For the same compound, the IC50 in assay [1] came out at 6.5 nM.

For `Nc1ccc(-c2[nH]c([C@@H]3[C@H]4C[C@H]4c4cc(-c5cc(Cl)ccc5-n5cnnn5)cc(=O)n43)nc2F)c(F)n1` [Embodiment 2], the CT2.0 with human plasma was determined as 0.55 µM. The midpoint of inhibition in assay [1], the IC50, lay at 6.7 nM.

In the case of `Nc1ccc(-c2[nH]c([C@@H]3[C@H]4C[C@H]4c4nc(-c5cc(Cl)ccc5-n5cnnn5)cc(=O)n43)nc2F)c(F)n1` [Embodiment 14], the CT2.0 in the assay on human plasma came out at 0.55 µM. This compound also showed a half-maximal inhibitory concentration (IC50) in assay [1] of 2.84 nM.

In turn, `Nc1n[nH]c2cc(-c3cnc([C@@H]4[C@H]5C[C@H]5c5cc(-c6cc(Cl)ccc6-n6cnnn6)cc(=O)n54)[nH]3)ccc12` [Embodiment 15] gave a CT2.0 in the assay with human plasma of 0.47 µM. In assay [1], inhibition was half-maximal at 0.82 nM (IC50).

`O=C1CCc2cc(-c3cnc([C@@H]4[C@H]5C[C@H]5c5cc(-c6cc(Cl)ccc6-n6cnnn6)cc(=O)n54)[nH]3)ccc2N1` [Embodiment 16] came in with a CT2.0 in the assay on human plasma of 0.63 µM. In assay [1], this compound had an IC50 of 4.74 nM.

For the compound `O=C1CCc2cc(-c3[nH]c([C@@H]4[C@H]5C[C@H]5c5cc(-c6cc(Cl)ccc6-n6cnnn6)cc(=O)n54)nc3F)ccc2N1` [Embodiment 17], the CT2.0 in the assay with human plasma is 0.54 µM. Moreover, the IC50 in assay [1] is 0.83 nM.

Regarding `O=C1COc2cc(-c3cnc([C@@H]4[C@H]5C[C@H]5c5cc(-c6cc(Cl)ccc6-n6cnnn6)cc(=O)n54)[nH]3)ccc2N1` [Embodiment 20], the CT2.0 in the assay with human plasma was 0.88 µM. In assay [1], this compound registered an IC50 of 6.3 nM.

Compound `Nc1ccc(-c2cnc([C@@H]3[C@H]4C[C@H]4c4cc(-c5cc(Cl)ccc5-n5cnnn5)cc(=O)n43)[nH]2)c(F)c1F` [Embodiment 24] gave a CT2.0 in the assay with human plasma of 0.90 µM. This compound also displayed an IC50 in assay [1] of 8.65 nM.

As for `Nc1noc2cc(-c3cnc([C@@H]4[C@H]5C[C@H]5c5cc(-c6cc(Cl)ccc6-n6cnnn6)cc(=O)n54)[nH]3)ccc12` [Embodiment 28], the CT2.0 in the assay on human plasma turned out to be 0.07 µM. In assay [1], this compound displayed an IC50 of 0.82 nM.

`Nc1noc2cc(-c3[nH]c([C@@H]4[C@H]5C[C@H]5c5cc(-c6cc(Cl)ccc6-n6cnnn6)cc(=O)n54)nc3F)ccc12` [Embodiment 29]: the CT2.0 in the assay on human plasma is 0.37 µM. Also, in assay [1], the IC50 was found to be 0.5 nM.

As for `O=C1CCc2cc(-c3[nH]c([C@@H]4[C@H]5C[C@H]5c5cc(-c6cc(Cl)ccc6-n6cc(Cl)nn6)cc(=O)n54)nc3F)ccc2N1` [Embodiment 31], in the assay on human plasma, the CT2.0 is 2.38 µM. In assay [1], this compound registered an IC50 of 4.63 nM.

Turning to `Nc1n[nH]c2cc(-c3cnc([C@@H]4[C@H]5C[C@H]5c5cc(-c6cc(Cl)ccc6-n6cc(Cl)nn6)cc(=O)n54)[nH]3)ccc12` [Embodiment 32], in the assay with human plasma, the CT2.0 amounted to 0.26 µM. Moreover, in assay [1], the IC50 was determined as 2.72 nM.

For the compound `Nc1n[nH]c2cc(-c3[nH]c([C@@H]4[C@H]5C[C@H]5c5cc(-c6cc(Cl)ccc6-n6cc(Cl)nn6)cc(=O)n54)nc3F)ccc12` [Embodiment 33], in the assay on human plasma, the CT2.0 turned out to be 0.69 µM. The compound further had an IC50 in assay [1] of 0.85 nM.

In the assay with human plasma, `Cn1nc(N)c2ccc(-c3cnc([C@@H]4[C@H]5C[C@H]5c5cc(-c6cc(Cl)ccc6-n6cnnn6)cc(=O)n54)[nH]3)cc21` [Embodiment 34] registered a CT2.0 of 0.58 µM. In assay [1], this compound had an IC50 of 11.9 nM.

`O=c1cc(-c2cc(Cl)ccc2-n2cnnn2)cc2n1[C@H](c1ncc(-c3ccc4c(c3)CCc3cn[nH]c3-4)[nH]1)[C@H]1C[C@@H]21` [Embodiment 42]: the CT2.0 in the assay with human plasma was found to be 1.08 µM. In addition, in assay [1], inhibition was half-maximal at 8.71 nM (IC50).

In the case of `Nc1ccc(-c2[nH]c([C@@H]3[C@H]4C[C@H]4c4cc(-c5cc(Cl)ccc5-n5cnnn5)cc(=O)n43)nc2F)c(F)c1F` [Embodiment 48], the CT2.0 in the assay with human plasma turned out to be 3.65 µM. In assay [1], this compound displayed an IC50 of 3.93 nM.

In the assay with human plasma, `Nc1ccc(-c2[nH]c([C@@H]3[C@H]4C[C@H]4c4cc(-c5cc(Cl)ccc5-n5cnnn5)cc(=O)n43)nc2F)cc1OC(F)(F)F` [Embodiment 49] showed a CT2.0 of 6.86 µM. For the same compound, in assay [1], half-maximal inhibition (IC50) was put at 6.4 nM.

These data come from US20220251095A1, “TRICYCLIC COMPOUND, PREPARATION METHOD THEREFOR AND USE THEREOF” (SHANGHAI JEMINCARE PHARMACEUTICALS CO., LTD., priority 2019, published 2022).
